{
  "source": "patent US12358960B2",
  "about": "“Selective targeting of ubiquitin- and ubiquitin-like E1-activating enzymes by structurally-stabilized peptides” (Dana-Farber Cancer Institute, Inc., priority 2019, dated 2025)",
  "key": {"[1]": {"tested_on": "ubiquitin cascade E1 (UBA1), E2 (UBE2A), E3 (HDM2), substrate p53", "assay": "In vitro ubiquitin pathway reconstitution assay (p53 ubiquitination)", "format": "biochemical", "settings": "peptide 30 μM; for ubiquitination of p53 with E2 pre-activated with Ub: pre-activated E2 instead of uncharged E2 and Ub; for ubiquitination of p53 with E1, E2, E3, Ub and ATP: unactivated E2", "protocol": "In Vitro Ubiquitin Pathway Reconstitution Assay: Reactions containing recombinant His-p53 (0.1 μM), in the presence or absence of peptide (30 μM), UBA1 (0.1 μM), UBE2D (1 μM), HDM2 (1 μM), ubiquitin (1 μM) and ATP (10 mM) (all Boston Biochem K-200B), preactivated Ub-UBEA2 (3 μM) (Boston Biochem E2-802), and USP7 (1 μM) (BostonBiochem E-519), as indicated, were mixed and incubated for 2 h at 37° C. in a final volume of […] followed by denaturation by boiling in SDS-containing loading dye for 10 min at 90° C. Samples were resolved by […] gel electrophoresis and transferred to nitrocellulose membrane. Membranes were blocked with 3% milk for 1 h, incubated overnight in PBS containing 3% BSA and mouse p53 antibody (Boston Biochem K-200B) at a 1:1000 dilution, washed in PBS containing 0.1% Tween-20, and then incubated in PBS containing 3% BSA and anti-mouse secondary antibody (BioRad AAC10P) at a 1:5000 dilution for 1 hour at room temperature. Membranes were again washed in PBS containing 0.1% Tween-20 and imaged using Amersham ECL Prime (GE Life Sciences) on an Amersham Imager 680 (GE Life Sciences)."}, "UBA1": {"target": "T1, UBA1 (Homo sapiens, UniProt P22314)", "T1 sequence (P22314 1-1058)": "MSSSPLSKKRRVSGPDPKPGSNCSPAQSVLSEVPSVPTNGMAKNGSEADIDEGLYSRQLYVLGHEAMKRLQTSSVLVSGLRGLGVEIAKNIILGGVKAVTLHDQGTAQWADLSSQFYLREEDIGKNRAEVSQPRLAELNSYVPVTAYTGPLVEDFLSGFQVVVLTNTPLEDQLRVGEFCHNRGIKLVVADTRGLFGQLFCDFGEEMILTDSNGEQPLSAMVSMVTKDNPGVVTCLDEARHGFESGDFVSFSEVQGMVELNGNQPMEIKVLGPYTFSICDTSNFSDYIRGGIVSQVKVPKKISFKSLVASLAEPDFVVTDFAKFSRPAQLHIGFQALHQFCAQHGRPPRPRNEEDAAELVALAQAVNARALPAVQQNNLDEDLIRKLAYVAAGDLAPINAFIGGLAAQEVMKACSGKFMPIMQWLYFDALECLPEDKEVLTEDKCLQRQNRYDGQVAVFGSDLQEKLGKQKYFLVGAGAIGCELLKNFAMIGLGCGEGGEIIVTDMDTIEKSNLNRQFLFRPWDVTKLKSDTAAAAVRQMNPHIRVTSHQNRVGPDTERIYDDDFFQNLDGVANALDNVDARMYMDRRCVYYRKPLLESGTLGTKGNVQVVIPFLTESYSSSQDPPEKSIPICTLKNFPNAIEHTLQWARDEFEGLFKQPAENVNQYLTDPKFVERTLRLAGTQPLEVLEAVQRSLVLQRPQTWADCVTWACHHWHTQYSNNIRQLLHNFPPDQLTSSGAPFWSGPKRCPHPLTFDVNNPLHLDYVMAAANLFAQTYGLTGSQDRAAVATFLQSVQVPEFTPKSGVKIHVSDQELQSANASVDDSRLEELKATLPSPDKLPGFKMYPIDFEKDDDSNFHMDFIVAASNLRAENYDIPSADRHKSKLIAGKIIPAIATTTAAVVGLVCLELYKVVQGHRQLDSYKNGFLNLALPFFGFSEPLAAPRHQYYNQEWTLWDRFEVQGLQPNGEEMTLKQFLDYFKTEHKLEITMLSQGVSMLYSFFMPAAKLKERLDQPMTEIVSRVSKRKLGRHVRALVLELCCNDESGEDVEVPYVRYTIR", "assay": "Hydrogen-deuterium exchange mass spectrometry with E1", "format": "binding", "settings": "10 s labeling", "protocol": "HXMS analysis: Hydrogen-deuterium exchange mass spectrometry (HXMS) experiments were performed as described (Barclay, L. A. et al. Inhibition of Pro-apoptotic BAX by a noncanonical interaction mechanism. Molecular Cell 57, 873-886, doi: 10.1016/j.molcel.2015.01.014 (2015)). SAH-UBE2A was incubated alone or with the indicated molar ratio of recombinant human UBA1, UBE2D2, or vehicle control for ten minutes on ice, in buffer containing 50 mM NaCl, 5 mM MgCl2, 500 nM ubiquitin, 20 mM ATP, 5 mM DTT, 20 mM HEPES, pH 7.4. Deuterium labeling was initiated with an 18-fold dilution into D20 buffer (20 mM HEPES, 50 mM NaCl, pD 8). After 10 s of labeling, the labeling reaction was quenched with the addition of an equal volume of quenching buffer (0.8 M guanidinium chloride, 0.8% [v/v] formic acid). Samples were then injected and peptides were trapped intact and desalted on a VanGuard Pre-Column trap (2.1 mm×5 mm, ACQUITY UPLC BEH C18, 1.7 μm) for 3 min, eluted from the trap using a 5%-35% gradient of acetonitrile over 6 minutes at a flow rate of 65 μL/min, and then separated using an ACQUITY UPLC HSS T3, 1.8 μm, 1.0 mm×50 mm column on a Waters nanoACQUITY LC. The Waters Synapt G2Si mass spectrometer was operated in ion mobility mode and data analyzed. All mass spectra were processed using DynamX 3.0 (Waters Corporation). […]"}},
  "note": "Entries after “also recorded” stand apart in the source; their conditions may differ. Bridge positions count the residues as written; N and C are the ends. Square brackets hold non-standard residues; d marks the D form. Peptide text beside a SMILES is read from it. R8 = C=CCCCCCC[C@@](C)(N)C(=O)O; S5 = C=CCCC[C@](C)(N)C(=O)O; Nle = CCCC[C@H](N)C(=O)O",
  "data": [
    {"smiles": "CCCC[C@H](NC(C)=O)C(=O)N[C@@H](CO)C(=O)N[C@H](C(=O)N1CCC[C@H]1C(=O)N[C@]1(C)CCCCCCC=CCCC[C@@](C)(C(=O)N[C@@H](Cc2ccccc2)C(=O)N[C@@H](CCCCN)C(=O)N[C@@H](CCCNC(=N)N)C(=O)N[C@@H](CC(C)C)C(=O)N[C@@H](CCC(N)=O)C(N)=O)NC(=O)[C@H](CCCNC(=N)N)NC(=O)[C@H](CCCC)NC(=O)[C@H](CC(C)C)NC(=O)[C@H](CCCNC(=N)N)NC(=O)[C@H](CCCNC(=N)N)NC(=O)[C@H](CCCNC(=N)N)NC1=O)[C@@H](C)O", "note": "[SAH-UBE2A-11, BSTPX1RRRLBRX2FKRLQ] (Ac-[Nle]STP[R8]RRRL[Nle]R[S5]FKRLQ-NH2; staple 5-12)", "values": [
      {"measurement": "ubiquitination of p53 with E2 pre-activated with Ub", "setting": "[1]", "result": "no effect on the ubiquitination of p53"},
      {"measurement": "ubiquitination of p53 with E2 pre-activated with Ub", "setting": "[1]; listed as SAH-UBE2A", "result": "circumvents the inhibitory activity of SAH-UBE2A"},
      {"measurement": "ubiquitination of p53 with E1, E2, E3, Ub and ATP", "setting": "[1]", "result": "inhibited the ubiquitination of p53 protein"},
      {"measurement": "ubiquitination of p53 with E1, E2, E3, Ub and ATP", "setting": "[1]; listed as SAH-UBE2A", "result": "inhibits the ubiquitination of p53"},
      {"measurement": "protection of peptide from deuterium uptake by UBA1", "setting": "UBA1", "result": "dose-dependently protected SAH-UBE2A from deuterium uptake; also recorded: dose-responsively binding to E1"}
    ]}
  ]
}
